The test system of the series is male CD-1 mice. Put plainly: 5 day chronic oral dosing toxicity study in mice (clinical signs). In kind it is in vivo. On the set-up: key to Clinical signs (observation code), Day 1, 24 hours / Clinical signs (observation code), Day 2, 24 hours / Clinical signs (observation code), Day 3, 24 hours / Clinical signs (observation code), Day 4, 24 hours / Clinical signs (observation code), Day 5, 24 hours / Clinical signs (observation code), Day 1, 4 hours / Clinical signs (observation code), Day 2, 4 hours / Clinical signs (observation code), Day 3, 4 hours / Clinical signs (observation code), Day 4, 4 hours / Clinical signs (observation code), Day 5, 4 hours: 0: Appeared Normal; 1: Activity (inc./dec.); 2: Sedation/Lethargy; 3: Piloerection; 4: Stereotypy; 5: Soft Stool; 6: Chromodacryorrhea; 7: Epistaxis; 8: Cyanosis; 9: Flaccidity; 10: Respiration; 11: Hunched Posture; 12: Enophthalmia; 13: Exophthalmia; 14: Palpabral Ptosis; 15: Loss of Righting; 16: Chromaturia; 17: Salivation; 18: Lacrimation; 19: Miosis; 20: Mydriasis; 21: Rigidity; 22: Ataxia; 23: Tremors; 24: Convulsions; 25: Catalepsy; 26: Lateral Recumbency; 27: Death. The settings on record: for Toxicity profile in comparison (compounds of formula 1 vs other GlyT1 inhibitors of similar potency): 5 day oral dosing in mice, tables 1-18. Here is the method: This example illustrated a 5 day chronic oral dosing toxicity study with GlyT1 inhibitors. […] Behavioral observations (clinical signs) and body weights were recorded daily for all compounds tested. Male CD-1 mice were purchased from Charles River Labs (Kingston, N.Y.). The animals weighed between 20-25 grams upon arrival. Animals were acclimatized in a temperature/humidity (72° ±5° F./50%±5%) controlled vivarium, with a common 12 hour light/dark cycle (Lights on 0700 hrs) for 5 days prior to test. All animals were allowed food (Purina Labdiete® Rodent chow # 5001) and water (supplied by Elizabethtown Water Company) ad libitum during the acclimation period and throughout the study. On the day prior to test initiation animals were randomly assigned to groups: All animals chosen for test weighed at least 20 grams and appeared in good condition. Each animal was dosed once daily for 5 days. Animals remained on site for a 3 day recovery period following the chronic dosing period.
A stock concentration of each test compound was prepared fresh on the day of study initiation. Aliquots were diluted to the needed concentrations for daily dosing. Stock solutions were kept in a refrigerator when not in use. Each compound was dissolved in a small amount of distilled water. One equivalent of sodium hydroxide (2 N) may have been added to aid in dissolution of each test agent. Vehicle was then added quantum sufficiat to give the final volume. Final volumes were adjusted to reflect percent free base when appropriate. The vehicle used in this experiment was Hydroxypropyl-β-cyclodextrine (HPCD) Acros, lot 011849601, dissolved in distilled water to form a 10% weight/volume concentration. The pH was adjusted, using sodium hydroxide (2 N), to equal that of the test agents (usually between 8 to 10). All prepared test compounds were either in solution, and clear, or in suspension, and slightly cloudy. Suspensions were mixed immediately prior to use.
All animals were administered either test compound or vehicle Per Os (PO) via 21 gauge gavage needles, in volumes of 10.0 ml/kg. Daily body weights were used to determine individual dosing volumes. All test compounds were weighed on a Denver Instruments analytical balance (model # A-250). Animals were weighed on a top loading Ohaus portable balance model # LS2000.
Animals were assessed for overt behaviors (clinical signs) immediately following administration of test agents, then again at 4 and 24 hours. Animals were assessed for 27 separate clinical signs:
Toxicity data obtained through the assay as described above is provided in Tables 1 to 14 for Compounds Gi to Gxiv inclusive. The animals were observed immediately following administration and again at 4 hours and 24 hours. Observations are reported using the code number from the following chart: […]

The mark [1] stands for this setting: 40 mg/kg/day PO, male CD-1 mice, one line per animal.
The mark [2] stands for this setting: dose 10 (m↓kg) PO, mice, one line per animal.
Where [3] appears, read: dose 25 (m↓kg) PO, mice, one line per animal.

Where “and” joins values, the source holds several entries; their conditions need not be identical. Equal values may be shown once. Marks after values point to notes of the source that are not given here.

The results in this text go back to patent US6667336B2, “GlyT-1 inhibitors” (NPS Allelix Corp., priority 2002, dated 2003).

With `Cc1cscc1/C(=C\CN(C)CC(=O)O)c1ccc(-c2cccc(C(F)(F)F)c2)cc1` [Compound G(xi), (Z)-N-(1-(4-(3-(Trifluoromethyl)phenyl)phenyl)-1-(3-(4-methylthienyl))prop-1-en-3-yl)sarcosine], under setting [1], the “Clinical signs (observation code), Day 1, 4 hours” value (from here on “Clinical signs … Day 1, 4 hours”) is reported as 0; the “Clinical signs (observation code), Day 1, 24 hours” value (shortened to “Clinical signs … Day 1, 24 hours”) is given as 0; the “Clinical signs (observation code), Day 2, 4 hours” value (from here on “Clinical signs … Day 2, 4 hours”) is 0; the “Clinical signs (observation code), Day 2, 24 hours” value (from here on “Clinical signs … Day 2, 24 hours”) turned out to be 0. Also, under setting [1], the “Clinical signs (observation code), Day 3, 4 hours” value (“Clinical signs … Day 3, 4 hours” below) was determined as 0; the “Clinical signs (observation code), Day 3, 24 hours” value (“Clinical signs … Day 3, 24 hours” for short) came out at 0; the “Clinical signs (observation code), Day 4, 4 hours” value (shortened to “Clinical signs … Day 4, 4 hours”) is 0; the “Clinical signs (observation code), Day 4, 24 hours” value (shortened to “Clinical signs … Day 4, 24 hours”) is 0. Under setting [1], the “Clinical signs (observation code), Day 5, 4 hours” value (“Clinical signs … Day 5, 4 hours” below) is reported as 0.

As to `COc1cccc(-c2ccc(/C(=C/CN(C)CC(=O)O)c3cscc3C)cc2)c1` [Compound G(xii), (Z)-N-(1-(4-(3-Methoxyphenyl)phenyl)-1-(3-(4-methylthienyl))prop-1-en-3-yl)sarcosine], under setting [1], the “Clinical signs … Day 1, 4 hours” value worked out at 0; the “Clinical signs … Day 1, 24 hours” value was determined as 0; the “Clinical signs … Day 2, 4 hours” value was 0; the “Clinical signs … Day 2, 24 hours” value was 0. Under setting [1], the “Clinical signs … Day 3, 4 hours” value was determined as 0; the “Clinical signs … Day 3, 24 hours” value came out at 0; the “Clinical signs … Day 4, 4 hours” value is recorded as 0; the “Clinical signs … Day 4, 24 hours” value stood at 0. In addition, under setting [1], the “Clinical signs … Day 5, 4 hours” value amounted to 0.

For the compound `Cc1cccc(-c2ccc(/C(=C/CN(C)CC(=O)O)c3sccc3C)cc2)c1` [Compound G(xiii), (Z)-N-(1-(4-(3-Methylphenyl)phenyl)-1-(2-(3-methylthienyl))prop-1-en-3-yl)sarcosine], under setting [1], the “Clinical signs … Day 1, 4 hours” value is listed as 0; the “Clinical signs … Day 1, 24 hours” value is listed as 0; the “Clinical signs … Day 2, 4 hours” value amounted to 0; the “Clinical signs … Day 2, 24 hours” value is reported as 0. Under setting [1], the “Clinical signs … Day 3, 4 hours” value was found to be 0; the “Clinical signs … Day 3, 24 hours” value was found to be 0; the “Clinical signs … Day 4, 4 hours” value worked out at 0; the “Clinical signs … Day 4, 24 hours” value is on record as 0. Moreover, under setting [1], the “Clinical signs … Day 5, 4 hours” value turned out to be 0.

With `Cc1ccccc1/C(=C\CN(C)CC(=O)O)c1ccc(-c2ccsc2)cc1` [Compound G(xiv), (Z)-N-(1-(4-(3-Thienyl)phenyl)-1-(2-methylphenyl)prop-1-en-3-yl)sarcosine], under setting [1], the “Clinical signs … Day 1, 4 hours” value turned out to be 0; the “Clinical signs … Day 1, 24 hours” value was determined as 0; the “Clinical signs … Day 2, 4 hours” value was 0; the “Clinical signs … Day 2, 24 hours” value is 0. Under setting [1], the “Clinical signs … Day 3, 4 hours” value is given as 0; the “Clinical signs … Day 3, 24 hours” value is on record as 0; the “Clinical signs … Day 4, 4 hours” value is 0; the “Clinical signs … Day 4, 24 hours” value is 0. Besides, under setting [1], the “Clinical signs … Day 5, 4 hours” value is reported as 0 and the “Clinical signs (observation code), Day 5, 24 hours” value was 0.

`CC(C)c1ccc(/C(=C/CN(C)CC(=O)O)c2ccsc2)cc1` [Compound H, reference compound]: the “Toxicity profile in comparison (compounds of formula 1 vs other GlyT1 inhibitors of similar potency)” value is “higher toxicity profile”.

As for `CN(C/C=C(\c1ccccc1)c1ccc(-c2ccsc2)cc1)CC(=O)O` [Compound I, reference compound], the “Toxicity profile in comparison (compounds of formula 1 vs other GlyT1 inhibitors of similar potency)” value was “higher toxicity profile”. For the same compound, under setting [1], the “Clinical signs … Day 1, 24 hours” value is given as 0; the “Clinical signs … Day 2, 24 hours” value was found to be 0; the “Clinical signs … Day 3, 24 hours” value came out at 0; the “Clinical signs … Day 4, 24 hours” value is given as 0.

As for `CN(C/C=C(\c1ccccc1)c1ccc(-c2ccccc2)cc1)CC(=O)O` [Compound J, reference compound], the “Toxicity profile in comparison (compounds of formula 1 vs other GlyT1 inhibitors of similar potency)” value was “higher toxicity profile”. Also, under “PO, mice, one line per animal”, the “Clinical signs … Day 4, 4 hours” value was determined as 0. Also, under setting [2], the “Clinical signs … Day 1, 4 hours” value was 0; the “Clinical signs … Day 2, 4 hours” value is on record as 0; the “Clinical signs … Day 3, 4 hours” value came to 0; the “Clinical signs … Day 5, 4 hours” value is given as 0. Besides, under setting [3], the “Clinical signs … Day 1, 24 hours” value is 0; the “Clinical signs … Day 2, 24 hours” value is 0 and 2.

`CN(C/C=C(/c1ccc(-c2cccc(C(F)(F)F)c2)cc1)c1ccc(Cl)s1)CC(=O)O` [Compound K, reference compound]: the “Toxicity profile in comparison (compounds of formula 1 vs other GlyT1 inhibitors of similar potency)” value is recorded as “higher toxicity profile”. Besides, under setting [1], the “Clinical signs … Day 1, 4 hours” value was 1 and 0 (2×); the “Clinical signs … Day 1, 24 hours” value is on record as 27*.
